These results are taken from US20180022922A1, “METHOD FOR PREPARING A COLORANT FOR USE IN A HOT MELT INK” (Océ Holding B.V., priority 2016, published 2018).

A short description of this data set: Migration test (paper chromatography). Type of data set: physicochemical. As to conditions: Wattmann 1-CHR paper, eluent cyclohexane/toluene 50 wt %/50 wt %, judged qualitatively (FIG. 5). Here is the method: A chromatography test is performed to provide an (comparative) indication of migration of a colorant on a print substrate. For this, solutions of the colorants to be tested, in dichloromethane are prepared. The prepared solutions contain substantially equal concentrations of colorant. For the purpose of the present invention, the eluent solution consists of a cyclohexane/toluene mixture (50 wt %/50 wt %). A sheet of Wattmann 1-CHR paper is used as a substrate. At about 1 cm from the bottom edge of the paper sheet dots of equal size of the colorant solutions are made (by using a pipette). Each dot is positioned at substantially the same distance from the bottom edge of the paper sheet. Then the sheet is left to dry. A beaker is filled with eluent solution such that the level of eluent solution is less than 1 cm. The dried test sample (paper sheet provided with colorant dots) is placed in the beaker such that the lower edge of the paper sheet touches the bottom of the beaker. Due to capillary flow the eluent solution will flow upward in the paper sheet. This set up is left to stand until the wetted height of paper sheet is at least 1.5 times the height to which the most soluble colorant rises. The results are judged qualitatively. If the colorant dot remains at the starting position, migration is not likely to occur. […]

With `Cn1c(=O)cc2c3c(c(NC4CCCCC4)ccc31)C(=O)c1ccccc1-2` [SR149], the “migration of colorant on paper substrate” value is reported as “significant migration”.
